Assay results: US8889704B2 (Array BioPharma Inc., priority 2011, dated 2014)
Counter-ions that a name gives are not always drawn.

Legend:
Assay type in all cases: biochemical
recombinant rat PIM-3 = recombinant rat PIM-3 (Rattus norvegicus, UniProt O70444); test: PIM-3 Assay (as Example A); conditions: averaged IC50; 30 μM ATP, 3.75 μM PIM2tide, 0.5 nM PIM-3
Experimental: (§1) The assay for the determination of PIM-1 activity is based on the incorporation of [^33P]PO4 from [γ-^33P]ATP into PIM2tide substrate and capture of the radiolabeled peptide onto a Whatman P81 (phosphocellulose) filter plate. The amount of radiolabeled product is then measured by liquid scintillation counting. The final buffer conditions were as follows: 20 mM K^+MOPS, pH 7.4, 10 mM MgCl2, 0.005% Tween-20, 1 mM DTT. Assay mixtures contained 35 μM [γ-^33P]ATP (20 μCi/mL), 7.5 μM PIM2tide and 0.25 nM PIM-1 in a total volume of 50 μL. Incubations were carried out for 60 min at 22° C. and quenched with 75 μL of 200 mM H3PO4, filtered through a Whatman P81 plate and washed (1×200 μL and 5×100 μL) with 200 mM H3PO4. Fifty μL of liquid scintillation cocktail were then added per well, and the plate was counted for 30 s/well using a TopCount NXT.
(§2) Compounds were prepared at 50× the final concentration in DMSO by conducting 3-fold serial dilutions from a 500-μM intermediate dilution to give a 10-point dosing curve having a high dose of 10 μM. One-μL aliquots of these were then transferred to the assay mixtures above to give a final concentration of DMSO of 2%. A standard or reference compound was typically included on each assay plate to validate that plate. For each plate, percent of control (POC) values were calculated for each well. IC50 values were estimated from the POC values using a standard 4-parameter logistic model. The IC50 is defined as the concentration of inhibitor at which the POC equals 50 for the fitted curve.
Assay was performed as described in Example A, using 30 μM [γ-^33P]ATP (20 μCi/mL), 3.75 μM PIM2tide and 0.5 nM recombinant rat PIM-3 in place of PIM-1.

PIM-1 = PIM-1 (Homo sapiens, UniProt P11309); test: Enzyme PIM-1 Assay ([33P]ATP incorporation into PIM2tide, filter plate); conditions: averaged IC50; 35 μM ATP, 7.5 μM PIM2tide, 0.25 nM PIM-1, 60 min at 22° C.
PIM-1, sequence (P11309 whole entry, species assumed): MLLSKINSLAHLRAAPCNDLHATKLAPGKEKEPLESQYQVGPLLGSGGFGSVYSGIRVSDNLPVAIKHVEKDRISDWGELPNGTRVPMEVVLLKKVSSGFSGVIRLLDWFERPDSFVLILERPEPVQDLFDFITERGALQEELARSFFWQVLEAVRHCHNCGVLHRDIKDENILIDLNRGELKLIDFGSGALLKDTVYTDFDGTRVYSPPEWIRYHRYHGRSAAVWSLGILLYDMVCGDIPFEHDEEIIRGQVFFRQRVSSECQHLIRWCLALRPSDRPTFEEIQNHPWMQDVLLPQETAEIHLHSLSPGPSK
Experimental: as §1, §2

[1] = biological target: T1, GST-tagged recombinant full-length human Pim-2 (Homo sapiens, UniProt Q9P1W9); test: PIM-2 Assay (as Example A); conditions: averaged IC50; 4 μM ATP, 1.0 μM PIM2tide, 1.5 nM Pim-2
T1 construct: GST-tagged recombinant full-length human Pim-2; GST
T1 sequence (Q9P1W9 whole entry): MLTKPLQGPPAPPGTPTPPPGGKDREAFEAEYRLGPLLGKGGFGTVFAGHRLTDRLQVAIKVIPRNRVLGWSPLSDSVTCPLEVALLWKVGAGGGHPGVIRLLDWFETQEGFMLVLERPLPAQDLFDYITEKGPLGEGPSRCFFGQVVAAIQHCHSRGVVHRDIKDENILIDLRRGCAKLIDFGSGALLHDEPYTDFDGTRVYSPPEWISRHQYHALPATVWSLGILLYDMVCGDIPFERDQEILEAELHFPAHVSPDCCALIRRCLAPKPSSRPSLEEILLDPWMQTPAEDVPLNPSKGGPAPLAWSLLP
Experimental: as §1, §2
Assay was performed as described in Example A, using 4 μM [γ-^33P]ATP (20 μCi/mL), 1.0 μM PIM2tide and 1.5 nM GST-tagged recombinant full-length human Pim-2 in place of PIM-1.

SMILES	IC50 (recombinant rat PIM-3) [nM]	IC50 (PIM-1) [nM]	IC50 [1] [nM]
CC(C)Oc1cccc2ccc(-c3nnc4ccc([C@@H](N5CC[C@H](NCCO)C5)C(F)(F)F)cn34)nc12 [Example 101, 2-((S)-1-((R)-2,2,2-trifluoro-1-(3-(8-isopropoxyquinolin-2-yl)-[1,2,4]triazolo[4,3-a]pyridin-6-yl)ethyl)pyrrolidin-3-ylamino)ethanol dihydrochloride]	0.8	0.15	40
N[C@H]1CCN([C@H](c2ccc3nnc(-c4ccc5cc(F)c(O)cc5n4)n3c2)C(F)(F)F)C1 [Example 157, 2-(6-((R)-1-((S)-3-aminopyrrolidin-1-yl)-2,2,2-trifluoroethyl)-[1,2,4]triazolo[4,3-a]pyridin-3-yl)-6-fluoroquinolin-7-ol hydrochloride]	12	3.44	239
CCOc1cc2nc(-c3nnc4ccc([C@@H](N5CCC(N)(CC)C5)C(F)(F)F)cn34)ccc2cc1F (single isomer, unassigned; diastereomer 2) [Example 253, dihydrochloride]	2.2	0.78	776
FC(F)(F)[C@H](c1ccc2nnc(-c3ccc4cccc(OCC5CC5)c4n3)n2c1)N1C[C@@H]2C[C@H]1CN2 [Example 76, 2-(6-((S)-1-((1S,4S)-2,5-diazabicyclo[2.2.1]heptan-2-yl)-2,2,2-trifluoroethyl)-[1,2,4]triazolo[4,3-a]pyridin-3-yl)-8-(cyclopropylmethoxy)quinoline dihydrochloride]	3.6	0.4	52
COc1cc(C)cc2ccc(-c3nnc4ccc([C@@H](N5CC[C@H](N)C5)C(F)(F)F)cn34)nc12 [Example 127, (S)-1-((R)-2,2,2-trifluoro-1-(3-(8-methoxy-6-methylquinolin-2-yl)-[1,2,4]triazolo[4,3-a]pyridin-6-yl)ethyl)pyrrolidin-3-amine hydrochloride]	11	3.28	> 100
FC(F)(F)[C@@H](c1ccc2nnc(-c3ccc4cccc(C5CC5)c4n3)n2c1)N1C[C@@H]2C[C@H]1CN2 [Example 65, 2-(6-((R)-1-((1S,4S)-2,5-diazabicyclo[2.2.1]heptan-2-yl)-2,2,2-trifluoroethyl)-[1,2,4]triazolo[4,3-a]pyridin-3-yl)-8-cyclopropylquinoline dihydrochloride]	2	1.45	18
CC(C)Oc1cccc2ccc(-c3nnc4ccc([C@H](N5CC[C@@H](O)C5)C(F)(F)F)cn34)nc12 [Example 103, (R)-1-((S)-2,2,2-trifluoro-1-(3-(8-isopropoxyquinolin-2-yl)-[1,2,4]triazolo[4,3-a]pyridin-6-yl)ethyl)pyrrolidin-3-ol]	3.1	0.1	> 100
N[C@@H]1CCN(C(c2ccc3nnc(-c4ccc5cccc(OCC6CC6)c5n4)n3c2)C(F)(F)F)C1 (stereo partly drawn) [Example 16, (3R)-1-(1-(3-(8-(cyclopropylmethoxy)quinolin-2-yl)-[1,2,4]triazolo[4,3-a]pyridin-6-yl)-2,2,2-trifluoroethyl)pyrrolidin-3-amine dihydrochloride]	6	0.28	140
COCCOc1ccc2ccc(-c3nnc4ccc([C@@H](N5CC[C@H](N)C5)C(F)(F)F)cn34)nc2c1 [Example 148, (S)-1-((R)-2,2,2-trifluoro-1-(3-(7-(2-methoxyethoxy)quinolin-2-yl)-[1,2,4]triazolo[4,3-a]pyridin-6-yl)ethyl)pyrrolidin-3-amine dihydrochloride]	1.2	0.34	> 100
CC(C)Oc1cccc2ccc(-c3nnc4ccc([C@@H](N5CC[C@](C)(N)C5)C(F)(F)F)cn34)nc12 [Example 93, (S)-3-methyl-1-((R)-2,2,2-trifluoro-1-(3-(8-isopropoxyquinolin-2-yl)-[1,2,4]triazolo[4,3-a]pyridin-6-yl)ethyl)pyrrolidin-3-amine dihydrochloride]	0.9	0.2	83
CC(C)(O)COc1ccc2ccc(-c3nnc4ccc([C@@H](N5CC[C@H](N)C5)C(F)(F)F)cn34)nc2c1 [Example 278, 1-(2-(6-((R)-1-((S)-3-aminopyrrolidin-1-yl)-2,2,2-trifluoroethyl)-[1,2,4]triazolo[4,3-a]pyridin-3-yl)quinolin-7-yloxy)-2-methylpropan-2-ol dihydrochloride]	0.4	0.23	180
COc1cccc2ccc(-c3nnc4ccc(C(N5CC[C@H](N)C5)C(F)(F)F)cn34)nc12 (stereo partly drawn) [Example 1, (3S)-1-(2,2,2-trifluoro-1-(3-(8-methoxyquinolin-2-yl)-[1,2,4]triazolo[4,3-a]pyridin-6-yl)ethyl)pyrrolidin-3-amine dihydrochloride]	1.7	0.43	161
N[C@H]1CCN(C(c2ccc3nnc(-c4ccc5ccc(C(F)(F)F)cc5n4)n3c2)C(F)(F)F)C1 (stereo partly drawn) [Example 29, (3S)-1-(2,2,2-trifluoro-1-(3-(7-(trifluoromethyl)quinolin-2-yl)-[1,2,4]triazolo[4,3-a]pyridin-6-yl)ethyl)pyrrolidin-3-amine dihydrochloride]	47	5.12	> 1000
C[C@@H](c1ccc2nnc(-c3ccc4cccc(C(C)(C)C)c4n3)n2c1)N1CC[C@H](N)C1 [Example 308, (S)-1-((S)-1-(3-(8-tert-butylquinolin-2-yl)-[1,2,4]triazolo[4,3-a]pyridin-6-yl)ethyl)pyrrolidin-3-amine trihydrochloride]	0.4	0.17	29.4
N[C@H]1CCN(C(c2ccc3nnc(-c4ccc5cccc(OCC6CC6)c5n4)n3c2)C(F)(F)F)C1 (stereo partly drawn) [Example 5, (3S)-1-(1-(3-(8-(cyclopropylmethoxy)quinolin-2-yl)-[1,2,4]triazolo[4,3-a]pyridin-6-yl)-2,2,2-trifluoroethyl)pyrrolidin-3-amine dihydrochloride]	2.6	0.25	131
CCOc1cc2nc(-c3nnc4ccc([C@H](N5CC[C@](C)(N)C5)C(F)(F)F)cn34)ccc2cc1F [Example 220, (S)-1-((S)-1-(3-(7-ethoxy-6-fluoroquinolin-2-yl)-[1,2,4]triazolo[4,3-a]pyridin-6-yl)-2,2,2-trifluoroethyl)-3-methylpyrrolidin-3-amine]	0.4	0.28	72
CC(C)Oc1ccc2ccc(-c3nnc4ccc([C@H](N5CC[C@](C)(N)C5)C(F)(F)F)cn34)nc2c1 [Example 314, (S)-3-methyl-1-((S)-2,2,2-trifluoro-1-(3-(7-isopropoxyquinolin-2-yl)-[1,2,4]triazolo[4,3-a]pyridin-6-yl)ethyl)pyrrolidin-3-amine]	0.4	0.22	18.4
CC(C)Oc1cc(F)cc2ccc(-c3nnc4ccc([C@@H](N5CC[C@H](N)C5)C(F)(F)F)cn34)nc12 [Example 86, (S)-1-((R)-2,2,2-trifluoro-1-(3-(6-fluoro-8-isopropoxyquinolin-2-yl)-[1,2,4]triazolo[4,3-a]pyridin-6-yl)ethyl)pyrrolidin-3-amine hydrochloride]	0.3	0.14	31
